Patent US20230110128A1, “USE OF ANTIBODY DRUG CONJUGATES COMPRISING TUBULIN DISRUPTING AGENTS TO TREAT SOLID TUMOR” (Seagen Inc., priority 2018, published 2023)
Non-standard residues stand in square brackets, D forms with d. Residues, ends and D or L forms follow the SMILES beside them. *: point of attachment. Dolaproine = CO[C@@H]([C@@H]1CCCN1)[C@@H](C)C(=O)O; Dil = CC[C@H](C)[C@H](NC)[C@@H](CC(=O)O)OC; X1 = C[C@@H](N*)[C@@H](O)c1ccccc1; NMeV = CN[C@H](C(=O)O)C(C)C

How the values were obtained:
Format in all cases: cell-based
[1] = test system: A2058, SK-MEL-5, and SK-MEL-28 (skin) cells co-cultured with macrophages; experiment: Macrophage antigen presentation after co-culture with treated skin tumor cells; settings: tumor cells treated 24 hours; macrophages harvested 4 days after co-culture; normalized to untreated
Experimental: (§1) Macrophages were enriched from PBMCs from 2 healthy donors by adhering PBMCs to cell culture-grade plastic. Non-adherent cells were removed 24 hours later, leaving a population of cells enriched for macrophages.
(§2) A2058, SK-MEL-5, and SK-MEL-28 (skin) cells were treated with MMAE, vincristine, and Paclitaxel for 24 hours. Cells were washed and harvested, and subsequently co-cultured with the enriched macrophages prepared above. Macrophages were harvested 4 days after co-culture and assayed for immune activation by flow cytometry. The level of antigen-presentation (as measured by frequency of MHCII-expressing cells) was quantified and normalized to macrophages that were co-cultured with untreated tumor cells.

[2] = test system: MCF7 breast cancer cells; experiment: Western blot analysis of ER stress response in MCF7 cells; settings: 16 hours
Experimental: MCF7 breast cancer cells were treated with 100 nM MMAE for 16 hours and harvested RIPA buffer for western blot analysis.
MCF7 cells were treated with MMAE or an MMAE-containing ADC (SGN-LIV1A) for 16 hours and harvested in […] for western bot analysis. […] Induction of ICD is also characterized by the secretion of ATP and HMGB1. Extracellular ATP serves as a strong chemotactic signal, promoting immune cell migration to the tumor site. Upon arrival, extracellular HMGB1 signals through various pro-inflammatory receptors (TLR2, TLR4, RAGE) to activate antigen-presenting cells, thereby promoting immune activity within the tumor.

[3] = test system: T-24 cells co-cultured with macrophages; experiment: Macrophage antigen presentation after co-culture with treated T-24 cells; settings: T-24 treated 24 hours; macrophages harvested 4 days after co-culture
Experimental: T-24 (bladder) cells were treated with MMAE or an MMAE-containing ADC (ASG-22ME) for 48 hours and analyzed for ATP secretion. […] T-24 cells were also treated with MMAE, an MMAE-containing ADC (ASG22ME, Enfortumab vedotin), vincristine, and Paclitaxel for 24 hours. Cells were washed and harvested, and subsequently co-cultured with the enriched macrophages as above. Macrophages were harvested 4 days after co-culture and assayed for immune activation by flow cytometry. Level of antigen-presentation (as measured by frequency of MHCII-expressing macrophages) was quantified and normalized to macrophages that were co-cultured with untreated tumor cells. […] Supernatant from the co-culture of macrophages and dying T-24 tumor cells was harvested after 24 hours and assayed for levels of cytokine and chemokine production by ELISA and normalized to macrophages that were co-cultured with untreated tumor cells.

[4] = test system: PC-3 cells; experiment: HMGB1 release from PC-3 cells; settings: FIG. 3E
[5] = test system: BxPC3 and HPAFII (pancreas) cells co-cultured with macrophages; experiment: Macrophage antigen presentation after co-culture with treated pancreas tumor cells; settings: BxPC3 and HPAFII treated 24 hours; macrophages harvested 4 days after co-culture
Experimental: as §1
as §2, with “BxPC3” for “A2058, SK-MEL-5,”, “HPAFII (pancreas)” for “SK-MEL-28 (skin)”, “Level” for “The level”

## CC[C@H](C)[C@@H]([C@@H](CC(=O)N1CCC[C@H]1[C@H](OC)[C@@H](C)C(=O)N[C@H](C)[C@@H](O)c1ccccc1)OC)N(C)C(=O)[C@@H](NC(=O)[C@@H](NC)C(C)C)C(C)C [MMAE, monomethyl auristatin E] (H-[NMeV]V[Dil][Dolaproine]-X1)
[1]
  Antigen-presentation (frequency of MHCII-expressing cells): increase in antigen-presentation in 2/3 tumor cell lines that was more robust than Paclitaxel
[2]; western blot
  Severe ER stress (JNK signaling by phosphorylated IRE1, expression of CHOP): elicited by MMAE
[2]; western blot (100 nM MMAE elsewhere in the source)
  ER stress response (phosphorylation of IRE1 and eIF2a, cleavage of full-length ATF6): activated all 3 pathways of the ER stress response
[3]
  Macrophage antigen presentation (frequency of MHCII-expressing macrophages): increase in macrophage antigen presentation that was more robust than treatment with Paclitaxel
[4]
  Release of HMGB1: release of ATP and HMGB1
[5]
  Antigen-presentation (frequency of MHCII-expressing cells): increase in antigen-presentation in 1/2 tumor cell lines
